In PMC11139994, “Inflammation causes insulin resistance in mice via interferon regulatory factor 3 (IRF3)-mediated reduction in FAHFA levels” (Nature Communications, 2024):

Experiments:
[1] = target: T1, AIG1 (androgen induced gene 1) (Mus musculus, UniProt Q9D8B1); assay: competitive gel-based ABPP (FP-Rh) in mouse brain membrane proteome; also MS-based ABPP and in vivo target engagement; assay type: biochemical
T1 construct: endogenous AIG1 in mouse brain membrane proteome
T1 sequence (Q9D8B1 1-238): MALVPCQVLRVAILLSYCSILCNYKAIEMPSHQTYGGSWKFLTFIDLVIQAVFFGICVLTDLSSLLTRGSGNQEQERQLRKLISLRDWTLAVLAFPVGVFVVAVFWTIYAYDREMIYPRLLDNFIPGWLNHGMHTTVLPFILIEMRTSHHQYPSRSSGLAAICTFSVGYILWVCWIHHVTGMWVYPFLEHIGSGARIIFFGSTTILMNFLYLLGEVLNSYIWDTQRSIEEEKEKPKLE

ABHD6 = target: T2, ABHD6 (Mus musculus, UniProt Q8R2Y0); assay: competitive MS-based ABPP-ReDiMe (FP-biotin) in mouse brain proteome (off-target); assay type: cell-based
T2 construct: endogenous ABHD6 in mouse brain proteome
T2 sequence (Q8R2Y0 1-336): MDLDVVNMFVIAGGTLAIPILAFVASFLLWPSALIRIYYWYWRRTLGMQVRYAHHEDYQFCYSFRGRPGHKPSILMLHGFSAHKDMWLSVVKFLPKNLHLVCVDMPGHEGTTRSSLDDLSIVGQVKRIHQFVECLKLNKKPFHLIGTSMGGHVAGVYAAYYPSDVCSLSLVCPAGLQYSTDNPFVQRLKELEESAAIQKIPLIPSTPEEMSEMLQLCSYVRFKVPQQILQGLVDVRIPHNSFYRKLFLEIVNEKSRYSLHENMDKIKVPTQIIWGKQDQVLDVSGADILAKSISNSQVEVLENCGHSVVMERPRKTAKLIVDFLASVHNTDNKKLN

- IC50 [1]: 1.6 nM
Compound: CN(c1ccn(C(=O)N2CCc3ccc(Oc4ccccc4)cc3C2)n1)S(C)(=O)=O [ABD-110, N-methyl-N-(1-(7-phenoxy-1,2,3,4-tetrahydroisoquinoline-2-carbonyl)-1H-pyrazol-3-yl)methanesulfonamide]
- competitive MS-based ABPP-ReDiMe (FP-biotin) in mouse brain proteome (off-target) (ABHD6): with only a few off-targets detected, including ABHD6 and several highly homologous, mouse-specific carboxylesterases (CESs)
